From publication PMC6273400, “Enhancement of Exposure and Reduction of Elimination for Paeoniflorin or Albiflorin via Co-Administration with Total Peony Glucosides and Hypoxic Pharmacokinetics Comparison” (Molecules, 2016)

Experiments:
[1] = Pharmacokinetics in rat plasma after intragastric administration, normoxia (UPLC-MS/MS); format: in vivo, Sprague-Dawley rats; conditions: mean ± SD; for clearance / Cmax / Tmax / half-life: n = 6; for Cmax / Tmax / half-life / AUC(0-t) / MRT last: male, Sprague-Dawley, rat, plasma, po; for AUC(0-t): n = 6, read-out: AUC(0→24 h) (converted); for MRT last: n = 6, read-out: MRT(0→24 h) (converted)
Method: (§1) Male Sprague-Dawley (SD) rats (250 g ± 20 g) were purchased from the Animal Center of Capital Medical University (ACCMU, Beijing, China). Animals were housed in individual cages with free access to food and water in a room with the illumination (a 12 h light and dark cycle), temperature and relative humidity controlled automatically. Within five days before experiments a jugular vein in each rat under anaesthesia was cannulated by insertion of an indwelling cannula for blood sampling. After fully recovery, the rats were housed with unlimited access to food and water except for fasting 12 h before the experiment with water available. The seven groups of PF/AF and TGP were intragastrically administered to the Sprague-Dawley rats, respectively. All the animal experiments were carried out in accordance with the Guide for the Care and Use of Laboratory Animals as adopted and promulgated by the National Health Ministry of China. The protocols of animal experiments had been approved by the Animal Center of Capital Medical University.
(§2) The UPLC-MS/MS system consisted of a UPLC system (Agilent Technologies, Palo Alto, CA, USA) including a G4220A 1290 binary pump, a G1379A vacuum degasser, a G4226 autosampler, a G1330B 1290 thermostat and triple quadrupole mass spectrometer equipped with an electrospray ionization (ESI) source (Series 6490, Agilent Technologies). The system was controlled with the Agilent Technologies Mass Hunter Workstation B.06.00 software for data acquisition and analysis. The analytes were separated on ZORBAX Eclipse plus C18 column (2.1 mm × 100 mm, 3.5 μm). The mobile phase consisted of 0.2% (v/v) formic acid in water (A) and methanol (B). The mobile phase conditions were 79:21 (A:B, v/v) and the flow rate was 0.4 mL/min. The column temperature was maintained at 30 °C. The sample injection volume was 5 μL. The detection was performed on the triple quadrupole mass spectrometer equipped with electrospray source (Series 6490, Agilent Technologies). High purity nitrogen served as both the nebulizing and sheath gas. The optimized parameters in the positive or negative were as follows: capillary voltage at 3 kV, nozzle voltage at 1.5 kV, gas temperature of 200 °C and sheath gas temperature of 250 °C. The quantification was performed by multiple reaction monitoring (MRM) via precursor-to-product ion pair. AF and IS were detected in positive ion mode while PF was detected in negative ion mode. The parameters were set as follows: m/z 525→449 for PF (fragmentor energy, 380 eV; collision energy, 10 eV; dwell time, 80 ms); m/z 481→105 for AF (fragmentor energy, 380 eV; collision energy, 28 eV; dwell time, 80 ms); m/z 417→297 for IS (fragmentor energy, 380 eV; collision energy, 25 eV; dwell time, 80 ms).
(§3) A 100 μL aliquot of plasma sample was added with 50 μL 1% (v/v) formic acid in water and 50 μL IS working solution (the IS, concentration of 100 ng/mL) and 300 μL acetonitrile. After vortexing for 2 min and centrifugation at 13,000× g for 10 min, the sample was transferred to another Axygen tube and evaporated to dryness in a rotary evaporator at 40 °C. The residue was reconstituted in 100 μL of water–methanol (79:21, v/v), then an aliquot of 5 μL was injected into the UPLC-MS/MS system for analysis.
(§4) The male Sprague-Dawley (SD) rats were randomly divided into seven groups (six rats in each group), which were housed with unlimited access to food and water, except for fasting 12 h before the experiment with water ad libitum. The hypoxic rats were exposed to a fractional concentration of 9.0% O2 after intragastric administration of drug for hypoxia pharmacokinetics experiments. The compound PF (80 mg/kg, normoxia and hypoxia), AF (14 mg/kg, normoxia and hypoxia), combination administration of PF (80 mg/kg) and AF (14 mg/kg), the two dosages of TPG (PF with 80 mg/kg, and AF with 14 mg/kg) were intragastrically administered to the rats, respectively. […]

[2] = Pharmacokinetics in rat plasma after intragastric administration, hypoxia (9.0% O2); format: in vivo, Sprague-Dawley rats; conditions: mean ± SD; for clearance / Cmax / Tmax / half-life: n = 6; for Cmax / Tmax / half-life / AUC(0-t) / MRT last: male, Sprague-Dawley, po; for AUC(0-t): n = 6, read-out: AUC(0→24 h) (converted); for MRT last: n = 6, read-out: MRT(0→24 h) (converted)
Method: as §1, §2, §3, §4

[3] = Stability of the analytes in SD rat plasma (QC samples); format: in vitro ADME; conditions: 24 h after pretreatment, three freeze (−80 °C)/thaw (room temperature) cycles, 30 days at −80 °C
Method: The stabilities of the analytes in the SD rat plasma were investigated using the QC sample solutions stored under different temperature conditions for different periods of time which likely to be encountered during sample storage and the analytical process. The QC samples were tested for post-treatment, three freeze-thaw cycles and long-term stabilities. The post-treatment was evaluated by placing the QC samples in the autosampler for 24 h. And for freeze-thaw cycle stability assessment, the QC samples were repeatedly freezed and thawed for three cycles at −80 °C to 20 °C. The long-term stability was carried out via placing the QC samples at −80 °C for at least 30 days.

[4] = 14 mg/kg, AF (14 mg/kg) combined with PF (80 mg/kg), intragastric
[5] = 14 mg/kg, AF alone, 14 mg/kg intragastric, normoxia
[6] = 14 mg/kg, AF in TPG (TPG dose with AF 14 mg/kg), intragastric
[7] = AF 14 mg/kg single intragastric
[8] = 80 mg/kg, PF (80 mg/kg) combined with AF (14 mg/kg), intragastric
[9] = 80 mg/kg, PF alone, 80 mg/kg intragastric, normoxia
[10] = 80 mg/kg, PF in TPG (TPG dose with PF 80 mg/kg), intragastric
[11] = PF 80 mg/kg single intragastric

SMILES: CC12CC(O)C3CC1(OC1OC(CO)C(O)C(O)C1O)C3(COC(=O)c1ccccc1)C(=O)O2 (centres unmarked) [AF, albiflorin]
- clearance ([1]; AF (14 mg/kg) combined with PF (80 mg/kg), intragastric): 1800 ± 600 mL/min/kg
- clearance ([1]; AF alone, 14 mg/kg intragastric, normoxia): 1700 ± 500 mL/min/kg
- clearance ([1]; AF in TPG (TPG dose with AF 14 mg/kg), intragastric): 1200 ± 400 mL/min/kg
- Cmax [1, 4]: 42.4 ± 18.7 ng/mL
- Tmax [1, 4]: 0.695 h
- half-life [1, 4]: 2.17 ± 0.978 h
- AUC(0-t) [1, 4]: 129 ng·h/mL
- MRT last [1, 4]: 2.97 h
- Cmax [1, 5]: 70.3 ± 19.1 ng/mL
- Tmax [1, 5]: 0.445 h
- half-life [1, 5]: 1.99 ± 0.495 h
- AUC(0-t) [1, 5]: 142 ng·h/mL
- MRT last [1, 5]: 2.25 h
- Cmax [1, 6]: 56.9 ± 12.9 ng/mL
- Tmax [1, 6]: 0.528 h
- half-life [1, 6]: 3.59 ± 1.53 h
- AUC(0-t) [1, 6]: 196 ng·h/mL
- MRT last [1, 6]: 3.76 h
- clearance [2, 7]: 1600 ± 700 mL/min/kg
- Cmax [2, 7]: 49.1 ± 16.2 ng/mL
- Tmax [2, 7]: 0.583 h
- half-life [2, 7]: 2.19 ± 0.958 h
- AUC(0-t) [2, 7]: 138 ng·h/mL
- MRT last [2, 7]: 2.16 h
- stability in rat plasma [3]: stable

SMILES: C[C@@]12C[C@@]3(O)O[C@@H](O1)[C@]1(COC(=O)c4ccccc4)[C@H]3C[C@@]12O[C@@H]1O[C@H](CO)[C@@H](O)[C@H](O)[C@H]1O [PF, paeoniflorin]
- clearance ([1]; PF (80 mg/kg) combined with AF (14 mg/kg), intragastric): 1600 ± 400 mL/min/kg
- clearance ([1]; PF alone, 80 mg/kg intragastric, normoxia): 2300 ± 400 mL/min/kg
- clearance ([1]; PF in TPG (TPG dose with PF 80 mg/kg), intragastric): 1700 ± 600 mL/min/kg
- Cmax [1, 8]: 320 ± 121 ng/mL
- Tmax [1, 8]: 0.695 h
- half-life [1, 8]: 1.63 ± 0.665 h
- AUC(0-t) [1, 8]: 865 ng·h/mL
- MRT last [1, 8]: 3.33 h
- Cmax [1, 9]: 333 ± 63.6 ng/mL
- Tmax [1, 9]: 0.583 h
- half-life [1, 9]: 1.81 ± 0.63 h
- AUC(0-t) [1, 9]: 595 ng·h/mL
- MRT last [1, 9]: 1.83 h
- Cmax [1, 10]: 291 ± 141 ng/mL
- Tmax [1, 10]: 0.388 h
- half-life [1, 10]: 3.91 ± 1.6 h
- AUC(0-t) [1, 10]: 902 ng·h/mL
- MRT last [1, 10]: 4.81 h
- clearance [2, 11]: 3050 ± 540 mL/min/kg
- Cmax [2, 11]: 177 ± 55.1 ng/mL
- Tmax [2, 11]: 0.847 h
- half-life [2, 11]: 1.86 ± 0.475 h
- AUC(0-t) [2, 11]: 443 ng·h/mL
- MRT last [2, 11]: 2.12 h
- stability in rat plasma [3]: stable
